Test results as given in patent publication US8334235B2, “Thiadiazolyloxyphenylamidines and use thereof as fungicides” (Bayer Cropscience AG, priority 2008, dated 2012).

Columns and labels:
log P (pH 2.3) = assay type: physicochemical
Alternaria solani = assay: Alternaria test (tomato)/protective; assay type: in vivo; settings: 72 h, 100 ppm active substance, protective, evaluation 3 days after inoculation, read-out: degree of effectiveness
Protocol: (§1) • Solvents: 24.5 parts by weight of acetone • 24.5 parts by weight of dimethylacetamide • Emulsifier: 1 part by weight of alkylaryl polyglycol ether (polyoxyethylene (16) tristearylphenyl ether)
To prepare a suitable active substance composition, 1 part by weight of substance is mixed with the given amounts of solvents and emulsifier and the concentrate is diluted to the desired concentration using water.
For the testing of protective effectiveness, young plants are sprayed with the active substance composition in the application rate given. After the spray coating has been dried on, the plants are inoculated with an aqueous suspension of spores of Alternaria solani. The plants are then placed in an incubation chamber at approximately 20° C. and 100% relative humidity.
Evaluation is carried out 3 days after the inoculation. In this connection, 0% means a degree of effectiveness corresponding to that of the control, while a degree of effectiveness of 100% means that no infestation is observed.

[1] = test system: bean rust pathogen Uromyces appendiculatus; assay: Uromyces test (beans)/protective; assay type: in vivo; settings: 240 h, 100 ppm active substance, protective, evaluation 10 days after inoculation, read-out: degree of effectiveness
Protocol: as §1
To prepare a suitable active substance composition, 1 part by weight of active substance is mixed with the given amounts of solvents and emulsifier and the concentrate is diluted to the desired concentration using water.
For the testing of protective effectiveness, young plants are sprayed with the active substance composition in the application rate given. After the spray coating has been dried on, the plants are inoculated with an aqueous suspension of the spores of the bean rust pathogen Uromyces appendiculatus and then remain in an incubation chamber at approximately 20° C. and 100% relative humidity for 1 day.
The plants are then placed in a greenhouse at approximately 21° C. and a relative humidity of approximately 90%.
Evaluation is carried out 10 days after the inoculation. In this connection, 0% means a degree of effectiveness corresponding to that of the control, while a degree of effectiveness of 100% means that no infestation is observed.

Sphaerotheca fuliginea = assay: Sphaerotheca test (cucumber)/protective; assay type: in vivo; settings: Podosphaera fuliginea, 168 h, 500 ppm active substance, protective, evaluation 7 days after inoculation, read-out: degree of effectiveness
Protocol: • Solvent: 49 parts by weight of N,N-dimethylformamide • Emulsifier: 1 part by weight of alkylaryl polyglycol ether (polyoxyethylene (16) tristearylphenyl ether) To prepare a suitable active substance composition, 1 part by weight of active substance is mixed with the given amounts of solvents and emulsifier and the concentrate is diluted to the desired concentration using water. For the testing of protective effectiveness, young cucumber plants are sprayed with the active substance composition in the application rate given. One day after treatment, the plants are inoculated with a suspension of spores of Sphaerotheca fuliginea. The plants are then placed in a greenhouse at 70% relative humidity and a temperature of 23° C. Evaluation is carried out 7 days after the inoculation. In this connection, 0% means a degree of effectiveness corresponding to that of the control, while a degree of effectiveness of 100% means that no infestation is observed.

Puccinia triticina [2] = assay: Puccinia triticina test (wheat)/protective; assay type: in vivo; settings: 192 h, 500 ppm active substance, protective, evaluation 8 days after inoculation, read-out: degree of effectiveness
Protocol: (§2) • Solvent: 50 parts by weight of N,N-dimethylacetamide • Emulsifier: 1 part by weight of alkylaryl polyglycol ether (polyoxyethylene (16) tristearylphenyl ether)
(§3) To prepare a suitable active substance composition, 1 part by weight of active substance is mixed with the given amounts of solvent and emulsifier and the concentrate is diluted to the desired concentration using water.
For the testing of protective effectiveness, young plants are sprayed with the active substance composition in the application rate given. After the spray coating has been dried on, the plants are sprayed with a suspension of spores of Puccinia triticina. The plants remain in an incubation chamber at 20° C. and 100% relative humidity for 48 hours. The plants are placed in a greenhouse at a temperature of approximately 20° C. and a relative humidity of approximately 80%.
(§4) Evaluation is carried out 8 days after the inoculation. In this connection, 0% means a degree of effectiveness corresponding to that of the control, while a degree of effectiveness of 100% means that no infestation is observed.

Puccinia triticina [3] = assay: Puccinia triticina test (wheat)/curative; assay type: in vivo; settings: 192 h, 500 ppm active substance, curative, evaluation 8 days after inoculation, read-out: degree of effectiveness
Protocol: as §2, §3
For the testing of curative effectiveness, young plants are sprayed with a suspension of spores of Puccinia triticina. The plants remain in an incubation chamber at 20° C. and 100% relative humidity for 48 hours and are then sprayed with the active substance composition in the application rate given. The plants are placed in a greenhouse at a temperature of approximately 20° C. and a relative humidity of approximately 80%.
as §4

| Compound | logP (log P (pH 2.3)) | pest or weed control at 100 ppm (Alternaria solani) [%] | pest or weed control at 100 ppm [1] [%] | pest or weed control at 500 ppm (Sphaerotheca fuliginea) [%] | pest or weed control at 500 ppm (Puccinia triticina [2]) [%] | pest or weed control at 500 ppm (Puccinia triticina [3]) [%] |
| --- | --- | --- | --- | --- | --- | --- |
| Cc1cc(N)c(Cl)cc1Oc1nc(CCc2ccc(Cl)cc2)ns1 [2-Chloro-4-({3-[2-(4-chlorophenyl)ethyl]-1,2,4-thiadiazol-5-yl}oxy)-5-methylaniline] | 4.5 | – | – | – | – | – |
| Cc1cc(N)c(Cl)cc1Oc1nc(C2(Cl)CC2)ns1 [2-Chloro-4-{[3-(1-chlorocyclopropyl)-1,2,4-thiadiazol-5-yl]oxy}-5-methylaniline] | 3.5 | – | – | – | – | – |
| Cc1ccc(S(=O)(=O)c2nc(C3(Cl)CC3)ns2)cc1 [3-(1-Chlorocyclopropyl)-5-{(4-methylphenyl)sulphonyl}-1,2,4-thiadiazole] | 3.67 | – | – | – | – | – |
| Cc1ccc(S(=O)(=O)c2nc(CCc3ccc(Cl)cc3)ns2)cc1 [3-[2-(4-Chlorophenyl)ethyl]-5-[(4-methylphenyl)sulphonyl]-1,2,4-thiadiazole] | 4.62 | – | – | – | – | – |
| O=c1oc(CCc2ccc(Cl)cc2)ns1 [5-[2-(4-Chlorophenyl)ethyl]-1,3,4-oxathiazol-2-one] | 3.36 | – | – | – | – | – |
| CCN(C)/C=N/c1cc(C)c(Oc2nc(C(C)(C)C)ns2)cc1Cl [Compound 1, N′-{4-[(3-(tert-butyl)-1,2,4-thiadiazol-5-yl)oxy]-2-chloro-5-methylphenyl}-N-ethyl-N-methylimidoformamide] | – | ≥ 70 | ≥ 70 | ≥ 70 | ≥ 70 | ≥ 70 |
| CCN(C)/C=N/c1cc(C)c(Oc2nc(C(C)(C)C)ns2)cc1Br [Compound 2, N′-{2-bromo-4-[(3-(tert-butyl)-1,2,4-thiadiazol-5-yl)oxy]-5-methylphenyl}-N-ethyl-N-methylimidoformamide] | – | ≥ 70 | ≥ 70 | ≥ 70 | ≥ 70 | ≥ 70 |
| CCN(C)/C=N/c1cc(C)c(Oc2nc(C(C)c3ccc(Cl)cc3)ns2)cc1Cl (stereo not shown) [Compound 6] | – | – | ≥ 70 | ≥ 70 | ≥ 70 | ≥ 70 |
| Cc1cc(N=CN(C)C(C)C)c(Cl)cc1Oc1nc(C(C)c2ccc(Cl)cc2)ns1 (stereo not shown) [Compound 8, N′-[2-chloro-4-({3-[1-(4-chlorophenyl)ethyl]-1,2,4-thiadiazol-5-yl}oxy)-5-methylphenyl]-N-methyl-N-(propan-2-yl)imidoformamide] | – | – | ≥ 70 | ≥ 70 | – | – |
| Cc1cc(N=CN(C)C(C)C)c(Cl)cc1Oc1nc(C(C)(C)c2ccc(Cl)cc2)ns1 [Compound 13, N′-[2-chloro-4-({3-[2-(4-chlorophenyl)propan-2-yl]-1,2,4-thiadiazol-5-yl}oxy)-5-methylphenyl]-N-methyl-N-(propan-2-yl)imidoformamide] | – | ≥ 70 | – | ≥ 70 | ≥ 70 | ≥ 70 |
| CCN(C)/C=N/c1cc(C)c(Oc2nc(Cc3ccccc3)ns2)cc1Cl [Compound 14, N′-{4-[(3-benzyl-1,2,4-thiadiazol-5-yl)oxy]-2-chloro-5-methylphenyl}-N-ethyl-N-methylimidoformamide] | – | ≥ 70 | ≥ 70 | ≥ 70 | ≥ 70 | ≥ 70 |
| CCN(C)C=Nc1cc(C)c(Oc2nc(/C=C/c3ccc(F)cc3)ns2)cc1Cl [Compound 15, N′-[2-chloro-4-({3-[(E)-2-(4-fluorophenyl)ethenyl]-1,2,4-thiadiazol-5-yl}oxy)-5-methylphenyl]-N-ethyl-N-methylimidoformamide] | – | ≥ 70 | ≥ 70 | ≥ 70 | ≥ 70 | ≥ 70 |
| CCN(C)C=Nc1cc(C)c(Oc2nc(C3(c4ccc(Cl)cc4)CC3)ns2)cc1Cl [Compound 17, N′-[2-chloro-4-({3-[1-(4-chlorophenyl)cyclopropyl]-1,2,4-thiadiazol-5-yl}oxy)-5-methylphenyl]-N-ethyl-N-methylimidoformamide] | – | ≥ 70 | ≥ 70 | ≥ 70 | ≥ 70 | ≥ 70 |
| CCN(C)/C=N/c1cc(C)c(Oc2nc(Cc3ccc(Cl)cc3)ns2)cc1Cl [Compound 18, N′-(2-chloro-4-{[3-(4-chlorobenzyl)-1,2,4-thiadiazol-5-yl]oxy}-5-methylphenyl)-N-ethyl-N-methylimidoformamide] | – | – | ≥ 70 | ≥ 70 | ≥ 70 | ≥ 70 |
| CCCN(C)/C=N/c1cc(C)c(Oc2nc(C(C)(C)C)ns2)cc1Cl [Compound 24, N′-{4-[(3-(tert-butyl)-1,2,4-thiadiazol-5-yl)oxy]-2-chloro-5-methylphenyl}-N-methyl-N-propylimidoformamide] | – | ≥ 70 | – | ≥ 70 | ≥ 70 | ≥ 70 |
| CCN(C)C=Nc1cc(C)c(Oc2nc(C3(C)CC3(Cl)Cl)ns2)cc1Cl (stereo not shown) [Compound 32, N′-(2-chloro-4-{[3-(2,2-dichloro-1-methylcyclopropyl)-1,2,4-thiadiazol-5-yl]oxy}-5-methylphenyl)-N-ethyl-N-methylimidoformamide] | – | ≥ 70 | ≥ 70 | ≥ 70 | ≥ 70 | ≥ 70 |
| CCN(C)/C=N/c1cc(C)c(Oc2nc(Cc3ccc(Br)cc3)ns2)cc1Cl [Compound 33, N′-(4-{[3-(4-bromobenzyl)-1,2,4-thiadiazol-5-yl]oxy}-2-chloro-5-methylphenyl)-N-ethyl-N-methylimidoformamide] | – | ≥ 70 | – | ≥ 70 | ≥ 70 | ≥ 70 |
| CCN(C)/C=N/c1cc(C)c(Oc2nc(Cc3ccc(Cl)cc3Cl)ns2)cc1Cl [Compound 38, N′-(2-chloro-4-{[3-(2,4-dichlorobenzyl)-1,2,4-thiadiazol-5-yl]oxy}-5-methylphenyl)-N-ethyl-N-methylimidoformamide] | – | – | ≥ 70 | ≥ 70 | ≥ 70 | ≥ 70 |
| CCN(C)/C=N/c1cc(C)c(Oc2nc(C(C)(C)CCl)ns2)cc1Cl [Compound 39, N′-(2-chloro-4-{[3-(1-chloro-2-methylpropan-2-yl)-1,2,4-thiadiazol-5-yl]oxy}-5-methylphenyl)-N-ethyl-N-methylimidoformamide] | – | ≥ 70 | ≥ 70 | ≥ 70 | ≥ 70 | ≥ 70 |
| CCN(C)/C=N/c1cc(C)c(Oc2nc(Cc3ccc(F)cc3F)ns2)cc1Cl [Compound 40, N′-(2-chloro-4-{[3-(2,4-difluorobenzyl)-1,2,4-thiadiazol-5-yl]oxy}-5-methylphenyl)-N-ethyl-N-methylimidoformamide] | – | ≥ 70 | – | ≥ 70 | ≥ 70 | ≥ 70 |
